Data from PubChem BioAssay AID1963431 (Molecular Pharmacology Branch, DTP, NCI, 2024).
“And” between values parts separate entries of the source, which are not always exact repeats. Equal values may be shown once.

System: Rh18 complex spheroid viability, percent test/control
Assay: Anticancer human tumor Rh18 cell line growth inhibition [Asc];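 note: spheroids exposed to compound for 7 days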;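 for viability, T/C: 100% = DMSO vehicle control wells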
Settings: for viability, T/C: stronger effect = lower value
How it was run: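 Complex spheroids combining tumor cells with HUVEC endothelial cells and human MSCs, at 37 degrees C, 5% CO2; agents tested alone or combined, half-log dilutions from at or near clinical Cmax, or 10 microM if Cmax unknown.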

[1] = curve of first compound, second compound 0.01 µM
[2] = curve of first compound, second compound 0.0316 µM
[3] = curve of first compound, second compound 0.1 µM
[4] = curve of first compound, second compound 0.316 µM
[5] = curve of first compound, second compound 1 µM

In the case of `O=C(c1ccc(F)c(F)c1Nc1ccc(I)cc1F)N1CC(O)([C@@H]2CCCCN2)C1`, the viability, T/C (compound 0.00316 µM) is reported as 91.5% and 92.7% and 97.3%, the viability, T/C (compound 0.01 µM) is reported as 76.6% and 84.3% and 100% and the viability, T/C (compound 0.0316 µM) is reported as 91.3% and 70.7% and 83.2%. The viability, T/C (compound 0.1 µM) was 77.7% and 78.5% and 78%, the viability, T/C (compound 0.316 µM) was 85% and 95.7% and 75.4% and the viability, T/C (compound 1 µM) was 20.7% and 36.6% and 40.9%. For the same molecule, the IC50 (curve of compound) was 589 nM and 729 nM and 730 nM.

For `Cc1nc(N2CCC3(CC2)COC(C)C3N)c(CO)nc1Sc1ccnc(N)c1Cl` (stereo unspecified), the viability, T/C (compound 0.00949 µM) was 73.9% and 66.6% and 93.2%, the viability, T/C (compound 0.03 µM) was 59.7% and 84% and 54% and the viability, T/C (compound 0.0949 µM) was 42.7% and 34.4% and 43%. For the same molecule, the viability, T/C (compound 0.3 µM) was 35.3% and 19.2% and 23.9%, the viability, T/C (compound 0.949 µM) was 25.5% and 25.6% and 19.7% and the viability, T/C (compound 3 µM) was 13.4% and 15.9% and 15.6%. The IC50 (curve of compound) was 65.4 nM and 61.2 nM and 47.5 nM.

In the case of `C=C(F)C(=O)N1CCN(c2nc(OCC3CCCN3C)nc3c2CCN(c2cccc4cccc(Cl)c24)C3)CC1CC#N` (stereo unspecified) + CNC(C)C(=O)NC1CN(S(=O)(=O)c2cccc(S(=O)(=O)N3CCC4CCC(C(=O)NC(c5ccccc5)c5ccccc5)N4C(=O)C(NC(=O)C(C)NC)C3)c2)CCC2CCC(C(=O)NC(c3ccccc3)c3ccccc3)N2C1=O, the IC50 [1] is reported as 484 nM, the IC50 [2] is reported as 152 nM and the IC50 [3] is reported as less than 31.6 nM. The IC50 [4] was less than 31.6 nM, the IC50 [5] was less than 31.6 nM and the viability, T/C (second compound 0.01 µM, first compound 0.0316 µM) was 71%. It also gave a viability, T/C (second compound 0.01 µM, first compound 0.1 µM) of 70.1%, a viability, T/C (second compound 0.01 µM, first compound 0.316 µM) of 53.5% and a viability, T/C (second compound 0.01 µM, first compound 1 µM) of 40.7%. It also gave a viability, T/C (second compound 0.01 µM, first compound 3.16 µM) of 16.2%, a viability, T/C (second compound 0.01 µM, first compound 10 µM) of 0.19% and a viability, T/C (second compound 0.0316 µM, first compound 0.0316 µM) of 46.5%. For the same molecule, the viability, T/C (second compound 0.0316 µM, first compound 0.1 µM) was 62.6%, the viability, T/C (second compound 0.0316 µM, first compound 0.316 µM) was 39.8% and the viability, T/C (second compound 0.0316 µM, first compound 1 µM) was 39.7%. It also gave a viability, T/C (second compound 0.0316 µM, first compound 3.16 µM) of 14.8%, a viability, T/C (second compound 0.0316 µM, first compound 10 µM) of 0.18% and a viability, T/C (second compound 0.1 µM, first compound 0.0316 µM) of 41.6%. It also gave a viability, T/C (second compound 0.1 µM, first compound 0.1 µM) of 42.2%, a viability, T/C (second compound 0.1 µM, first compound 0.316 µM) of 43.8% and a viability, T/C (second compound 0.1 µM, first compound 1 µM) of 34.4%. The viability, T/C (second compound 0.1 µM, first compound 3.16 µM) was 10.1%, the viability, T/C (second compound 0.1 µM, first compound 10 µM) was 0.19% and the viability, T/C (second compound 0.316 µM, first compound 0.0316 µM) was 49.4%. The viability, T/C (second compound 0.316 µM, first compound 0.1 µM) was 49%, the viability, T/C (second compound 0.316 µM, first compound 0.316 µM) was 47.7% and the viability, T/C (second compound 0.316 µM, first compound 1 µM) was 39.2%. The viability, T/C (second compound 0.316 µM, first compound 3.16 µM) was 10.8%, the viability, T/C (second compound 0.316 µM, first compound 10 µM) was 0.19% and the viability, T/C (second compound 1 µM, first compound 0.0316 µM) was 42.3%. For the same molecule, the viability, T/C (second compound 1 µM, first compound 0.1 µM) was 45.3%, the viability, T/C (second compound 1 µM, first compound 0.316 µM) was 37.7% and the viability, T/C (second compound 1 µM, first compound 1 µM) was 31.3%. It also gave a viability, T/C (second compound 1 µM, first compound 3.16 µM) of 6.38% and a viability, T/C (second compound 1 µM, first compound 10 µM) of 0.2%.

In the case of `NC1CCC(NC2CC2c2ccccc2)CC1` (stereo unspecified) + CCN1C(C(=O)NC23CCC(C(=O)O)(CC2)CC3)C(c2cccc(Cl)c2F)C2(C(=O)Nc3cc(Cl)ccc32)C12CCCCC2, the IC50 (curve of first compound, second compound 0.03 µM) is reported as less than 0.316 nM, the IC50 (curve of first compound, second compound 0.0949 µM) is reported as less than 0.316 nM and the IC50 (curve of first compound, second compound 0.3 µM) is reported as less than 0.316 nM. It also gave an IC50 (curve of first compound, second compound 0.949 µM) of less than 0.316 nM, an IC50 (curve of first compound, second compound 3 µM) of less than 0.316 nM and a viability, T/C (second compound 0.03 µM, first compound 0.000316 µM) of 31.7%. The viability, T/C (second compound 0.03 µM, first compound 0.001 µM) was 31.3%, the viability, T/C (second compound 0.03 µM, first compound 0.00316 µM) was 30.4% and the viability, T/C (second compound 0.03 µM, first compound 0.01 µM) was 29.5%. For the same molecule, the viability, T/C (second compound 0.03 µM, first compound 0.0316 µM) was 33.9%, the viability, T/C (second compound 0.03 µM, first compound 0.1 µM) was 34.5% and the viability, T/C (second compound 0.0949 µM, first compound 0.000316 µM) was 19.3%. It also gave a viability, T/C (second compound 0.0949 µM, first compound 0.001 µM) of 23.4%, a viability, T/C (second compound 0.0949 µM, first compound 0.00316 µM) of 18.8% and a viability, T/C (second compound 0.0949 µM, first compound 0.01 µM) of 19%. For the same molecule, the viability, T/C (second compound 0.0949 µM, first compound 0.0316 µM) was 19.6%, the viability, T/C (second compound 0.0949 µM, first compound 0.1 µM) was 20.9% and the viability, T/C (second compound 0.3 µM, first compound 0.000316 µM) was 11.1%. The viability, T/C (second compound 0.3 µM, first compound 0.001 µM) was 13.3%, the viability, T/C (second compound 0.3 µM, first compound 0.00316 µM) was 13% and the viability, T/C (second compound 0.3 µM, first compound 0.01 µM) was 13.3%. It also gave a viability, T/C (second compound 0.3 µM, first compound 0.0316 µM) of 12.9%, a viability, T/C (second compound 0.3 µM, first compound 0.1 µM) of 14.4% and a viability, T/C (second compound 0.949 µM, first compound 0.000316 µM) of 11.6%. It also gave a viability, T/C (second compound 0.949 µM, first compound 0.001 µM) of 10.8%, a viability, T/C (second compound 0.949 µM, first compound 0.00316 µM) of 9.55% and a viability, T/C (second compound 0.949 µM, first compound 0.01 µM) of 8.96%. The viability, T/C (second compound 0.949 µM, first compound 0.0316 µM) was 10.3%, the viability, T/C (second compound 0.949 µM, first compound 0.1 µM) was 11.3% and the viability, T/C (second compound 3 µM, first compound 0.000316 µM) was 11%. The viability, T/C (second compound 3 µM, first compound 0.001 µM) was 10.2%, the viability, T/C (second compound 3 µM, first compound 0.00316 µM) was 11.8% and the viability, T/C (second compound 3 µM, first compound 0.01 µM) was 10.1%. It also gave a viability, T/C (second compound 3 µM, first compound 0.0316 µM) of 8.61% and a viability, T/C (second compound 3 µM, first compound 0.1 µM) of 9.99%.

`Cn1ncnc1[C@H]1c2n[nH]c(=O)c3cc(F)cc(c23)N[C@@H]1c1ccc(F)cc1` was tested, and the viability, T/C (compound 0.000316 µM) was 113% and 102% and 90.3%, the viability, T/C (compound 0.001 µM) was 101% and 99.1% and 69.5% and the viability, T/C (compound 0.00316 µM) was 79.1% and 73.3% and 49.3%. The viability, T/C (compound 0.01 µM) was 51.2% and 49.3% and 46.3%, the viability, T/C (compound 0.0316 µM) was 41.5% and 46.6% and 46.8% and the viability, T/C (compound 0.1 µM) was 41.6% and 51.8% and 40.3%. The IC50 (curve of compound) was 12.9 nM and 10.8 nM and 3.16 nM.

With `CCN1C(C(=O)NC23CCC(C(=O)O)(CC2)CC3)C(c2cccc(Cl)c2F)C2(C(=O)Nc3cc(Cl)ccc32)C12CCCCC2` (stereo unspecified) + CNC(C)C(=O)NC1CN(S(=O)(=O)c2cccc(S(=O)(=O)N3CCC4CCC(C(=O)NC(c5ccccc5)c5ccccc5)N4C(=O)C(NC(=O)C(C)NC)C3)c2)CCC2CCC(C(=O)NC(c3ccccc3)c3ccccc3)N2C1=O the IC50 [1] was less than 9.49 nM, the IC50 [2] was less than 9.49 nM and the IC50 [3] was less than 9.49 nM. For the same molecule, the IC50 [4] was less than 9.49 nM, the IC50 [5] was less than 9.49 nM and the viability, T/C (second compound 0.01 µM, first compound 0.00949 µM) was 33%. For the same molecule, the viability, T/C (second compound 0.01 µM, first compound 0.03 µM) was 26.5%, the viability, T/C (second compound 0.01 µM, first compound 0.0949 µM) was 19.7% and the viability, T/C (second compound 0.01 µM, first compound 0.3 µM) was 11.7%. It also gave a viability, T/C (second compound 0.01 µM, first compound 0.949 µM) of 10.8%, a viability, T/C (second compound 0.01 µM, first compound 3 µM) of 7.5% and a viability, T/C (second compound 0.0316 µM, first compound 0.00949 µM) of 28.5%. The viability, T/C (second compound 0.0316 µM, first compound 0.03 µM) was 21.7%, the viability, T/C (second compound 0.0316 µM, first compound 0.0949 µM) was 16.3% and the viability, T/C (second compound 0.0316 µM, first compound 0.3 µM) was 11.6%. The viability, T/C (second compound 0.0316 µM, first compound 0.949 µM) was 10.3%, the viability, T/C (second compound 0.0316 µM, first compound 3 µM) was 7.98% and the viability, T/C (second compound 0.1 µM, first compound 0.00949 µM) was 20.6%. The viability, T/C (second compound 0.1 µM, first compound 0.03 µM) was 18.6%, the viability, T/C (second compound 0.1 µM, first compound 0.0949 µM) was 14.6% and the viability, T/C (second compound 0.1 µM, first compound 0.3 µM) was 13.5%. The viability, T/C (second compound 0.1 µM, first compound 0.949 µM) was 10.5%, the viability, T/C (second compound 0.1 µM, first compound 3 µM) was 8.21% and the viability, T/C (second compound 0.316 µM, first compound 0.00949 µM) was 21%. For the same molecule, the viability, T/C (second compound 0.316 µM, first compound 0.03 µM) was 18.1%, the viability, T/C (second compound 0.316 µM, first compound 0.0949 µM) was 17.7% and the viability, T/C (second compound 0.316 µM, first compound 0.3 µM) was 14.1%. For the same molecule, the viability, T/C (second compound 0.316 µM, first compound 0.949 µM) was 9.49%, the viability, T/C (second compound 0.316 µM, first compound 3 µM) was 10.4% and the viability, T/C (second compound 1 µM, first compound 0.00949 µM) was 19.9%. The viability, T/C (second compound 1 µM, first compound 0.03 µM) was 17.2%, the viability, T/C (second compound 1 µM, first compound 0.0949 µM) was 15.9% and the viability, T/C (second compound 1 µM, first compound 0.3 µM) was 13.7%. It also gave a viability, T/C (second compound 1 µM, first compound 0.949 µM) of 11.8% and a viability, T/C (second compound 1 µM, first compound 3 µM) of 9.28%.
